Entries after “also recorded” stand apart in the source; their conditions may differ. Where a SMILES comes first, the peptide text is derived from it. [ ]: non-standard residue; d: D form.
Key:
[1] = test system: neonatal rat ventricular myocytes (NRVM); assay: Cardiomyocyte death by simulated ischemia/reperfusion (LDH release, procaspase 3 cleavage); type: cell-based
Description: Neonatal rat ventricular myocytes (NRVM) were isolated from one- to three-day-old Sprague Dawley rats. Cells were pre-plated to discard non-myocyte cells and the myocyte-enriched fraction was plated on gelatin-precoated 35 mm dishes and grown in DMEM/M199 (4:1) medium with 10% (w/v) fetal bovine serum (FBS) and […] bromodeoxyuridine for 24 h before the experiments. Ischemia was induced by incubating the cardiomyocytes in ischemia-mimicking solution (ischemic medium) containing HEPES 5 mM, 2-deoxy-D-glucose 10 mM, NaCl 139 mM, KCl 12 mM, MgCl2 0.5 mM, CaCl2 1.3 mM and lactic acid 20 mM, pH 6.2, under O2<1%, 5% CO2 and 95% nitrogen at 37° C. for 8 h. Subsequently for simulated reperfusion, ischemia-mimicking solution was replaced by DMEM/M199 (4:1) containing 10% (w/v) FBS and NRVM were incubated for 16 h in 95% air and 5% CO2. Parallel NRVM were assigned to a control group which was exposed to normoxic conditions in a control medium containing (in mM) 5 HEPES 5 mM, D-glucose 23 mM, NaCl 139 mM, KCl 4.7 mM, MgCl2 0.5 mM, CaCl2 1.3 mM, pH 7.4 under 95% air and 5% CO2 for 8 h. Then, control medium was replaced with DMEM/M199 (4:1) containing 10% (w/v) FBS under 95% air and 5% CO2 for 16 h.
For the evaluation of necrosis, the activity of lactate dehydrogenase (LDH) was measured spectrophotometrically at 490 nm in samples of the culture medium after normoxia (control) and sl/R both at 8 h and 16 h, using the kit CytoTox 96® Non-Radioactive Cytotoxicity Assay, Promega (Corp., Madison, WI, USA), according to the manufacturer's instructions. Apoptosis was evaluated by measuring procaspase 3 cleavage to caspase 3 by western blotting.

[2] = test system: spontaneously hypertensive rats (SHR); assay: Cardiac inflammation by monocyte infiltration in SHR, ED-1 immunohistochemistry; type: in vivo, rat; conditions: SHR, 1,200 ng/kg/min, 14 days
Description: (§1) Experimental animal model. All procedures were performed in accordance with the Guide for the Care and Use of Laboratory Animals published by the U.S. National Institutes of Health (NIH Publication 85 23, 1985) and approved by our Institutional Bioethics Committee. The animals were housed under the continuous professional monitoring of the Medical Veterinary staff in the animal facility of the Pontificia Universidad Católica de Chile, under the following conditions: 12-h light-dark cycle; 21° C. ambient temperature; 50% humidity; adequate ventilation; noise-free environment; and food and water ad libitum. Male spontaneously hypertensive rats (SHR, age 12 weeks) and normotensive Wistar Kyoto rats (WKY, 12 weeks age) were used. […] Systolic blood pressure (SBP), diastolic blood pressure (DBP) and body weight (BW) were measured at the end of the treatment period and the animals were then sacrificed.
Evaluation of cardiac inflammation by monocyte infiltration. Monocyte infiltration was assessed as a marker of cardiac inflammation. Monocytes were detected by immunohistochemistry using ED-1. […] In hypertense SHR increased ED-1 positive cells was detected in the hearts, indicating the presence of monocyte infiltration, a marker of cardiac inflammation.

[3] = test system: spontaneously hypertensive rats (SHR); assay: Cardiac-resident macrophage phenotype M1/M2 in SHR, flow cytometry; type: in vivo, rat; conditions: SHR, 1,200 ng/kg/min, 14 days
Description: as §1, with “sacrificed. […]” for “sacrificed.”

CC[C@@H](C)[C@@H](NC(=O)[C@@H](Cc1c[nH]cn1)NC(=O)[C@H]1CCCN1C(=O)[C@@H](Cc1ccccc1)NC(=O)[C@H](N)Cc1c[nH]cn1)C(=O)N[C@H](Cc1ccc(O)cc1)C(=O)N[C@@H](C(=O)N[C@H](CCCNC(=N)N)C(=O)N[C@H](CC(=O)O)C(=O)O)C(C)C [retro-inverse angiotensin-(1-9), NH2-^DH^DF^DP^DH^DI^DY^DV^DR^DD-COOH] (H-[dH][dF][dP][dH][dI][dY][dV][dR][dD]-OH)
cardiomyocyte apoptosis induced by ischemia reperfusion (procaspase 3 cleavage) ([1]; 10 μM peptide, western blotting): inhibited | cardiomyocyte necrosis induced by ischemia reperfusion (LDH release) ([1]; 1 and 10 μM peptide): Significative necrosis inhibition | cardiomyocyte necrosis induced by ischemia reperfusion (LDH release) ([1]; simulated ischemia 8 h / reperfusion 16 h): inhibited in a dose response manner | accumulation of ED-1 positive cells in cardiac tissue [2]: completely revert | macrophages M1 in cardiac tissues [3]: reversed the increase; also recorded: more marked decrease in macrophages M1 than angiotensin-(1-9) | macrophages M2 in cardiac tissues [3]: increases the macrophages M2

Source: patent US20250206779A1, “ANGIOTENSIN-(1-9) ANALOGUE BASED ON D AMINO ACIDS, PHARMACEUTICAL COMPOSITIONS AND USES THEREOF” (UNIVERSIDAD DE CHILE, priority 2021, published 2025)
